Converted amounts (≈) assume the structure as drawn. Structures can show the parent of a compound that is named as a salt. Where two headings read alike, the source gives them in different places.
Key:
HIV-1 (RF) in MT-2 cells = test: microbe, parasite or virus in culture; format: cell-based
Outline: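 Read-out: gag and pol viral RNA captured by 5′-biotinylated oligonucleotides on streptavidin-coated wells, detected with alkaline phosphatase-linked reporter oligonucleotides, calibrated against BH10 in vitro transcripts. Virus stocks (RF, MN, IIIB) come from H9 cultures; MT-2 host cells kept in RPMI 1640, 5% FCS.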

[1] = biological target: single-chain tethered dimer of HIV protease (Human immunodeficiency virus 1, UniProt P04585); test: biochemical; format: biochemical; set-up: fused on or other part: A second copy of the same protease unit is joined to the first by a short peptide tether, giving one polypeptide
[2] = Human immunodeficiency virus 1, MT2, 48 h, Table 2d, class symbols, read-out: IC90
[3] = read-out: HPLC K1, Table 2d, class symbols
[4] = Human immunodeficiency virus 1, MT2, HIV RNA assay, HIV-1 infected MT-2 cells, class symbols, read-out: IC90
[5] = Table 2d, HIV protease inhibition, HPLC method, read-out: HPLC K1

SMILES: O=C1N(Cc2cccc(C=NO)c2)C(Cc2ccccc2)C(O)C(O)C(Cc2ccccc2)N1Cc1cccc(CNO)c1 (stereo not shown) [Example 9A]
- IC90 (HIV-1 (RF) in MT-2 cells; [2]): < 10 µg/mL
- melting point: 214 to 216 °C
- Ki [1, 3]: 10 to 1000 nM

SMILES: O=C(NCc1ccccc1)Oc1cccc(CN2C(=O)N(Cc3cccc(OC(=O)NCc4ccccc4)c3)C(Cc3ccccc3)C(O)C(O)C2Cc2ccccc2)c1 (stereo not shown) [Example 9L]
- IC90 (HIV-1 (RF) in MT-2 cells; [2]): < 10 µg/mL
- melting point: 150 °C (dec.)
- Ki [1, 3]: 10 to 1000 nM

SMILES: CN(C)c1cccc(CN2C(=O)N(Cc3cccc(N(C)C)c3)C(Cc3ccccc3)C(O)C(O)C2Cc2ccccc2)c1 (stereo not shown) [15I]
- IC90 (HIV-1 (RF) in MT-2 cells; [2]): < 10 µg/mL
- melting point: 199.9 °C
- Ki [1, 3]: < 10 nM

SMILES: CCN(CC)C(=O)c1cccc(CN2C(=O)N(Cc3cccc(C(=O)N(CC)CC)c3)C(Cc3ccccc3)C(O)C(O)C2Cc2ccccc2)c1 (stereo not shown) [15WF]
- IC90 (HIV-1 (RF) in MT-2 cells; [2]): < 10 µg/mL
- melting point: 89 to 91 °C
- Ki [1, 3]: < 10 nM

SMILES: CCCCCCC1C(O)C(O)C(CCCCCC)N(Cc2ccccc2)C(=O)N1Cc1ccccc1 (stereo not shown) [Example 16AI]
- melting point: 79 to 82 °C
- Ki ([1]; read-out: K4 HPLC, Table 2e): 10 to 1000 nM

SMILES: CN(C=O)c1cccc(CN2C(=O)N(Cc3cccc(N(C)C=O)c3)C(Cc3ccccc3)C(O)C(O)C2Cc2ccccc2)c1 (stereo not shown) [15F]
- IC90 (HIV-1 (RF) in MT-2 cells; [2]): < 10 µg/mL
- melting point: 82 °C
- Ki [1, 3]: 10 to 1000 nM

SMILES: CCNC(=O)c1cccc(CN2C(=O)N(Cc3cccc(C(=O)NCC)c3)C(Cc3ccccc3)C(O)C(O)C2Cc2ccccc2)c1 (stereo not shown) [11R]
- IC90 (HIV-1 (RF) in MT-2 cells; [2]): < 10 µg/mL
- melting point: 135 to 138 °C
- Ki [1, 3]: < 10 nM

SMILES: N#CN=C1N(Cc2cccc([N+](=O)[O-])c2)[C@H](Cc2ccccc2)[C@H](O)[C@@H](O)[C@@H](Cc2ccccc2)N1Cc1cccc([N+](=O)[O-])c1
- melting point: 114 °C

SMILES: O=C1N(Cc2cccc(-c3ncc[nH]3)c2)C(Cc2ccccc2)C(O)C(O)C(Cc2ccccc2)N1Cc1cccc(-c2ncc[nH]2)c1 (stereo not shown) (as salt: hydrochloride) [Example 15BS]
- melting point: 191 to 194 °C

SMILES: CC(=NO)c1cccc(CN2C(=O)N(Cc3cccc(C(C)=NO)c3)C(Cc3ccccc3)C(O)C(O)C2Cc2ccccc2)c1 (stereo not shown) [Example 9Q]
- IC90 (HIV-1 (RF) in MT-2 cells; [2]): < 10 µg/mL
- melting point: 200 to 202 °C

SMILES: CC1C(O)C(O)C(C)N(Cc2ccc3ccccc3c2)C(=O)N1Cc1ccc2ccccc2c1 (stereo not shown) [Example 16H]
- melting point: 236 to 238 °C
- Ki ([1]; read-out: K4 HPLC, Table 2e): > 1000 nM

SMILES: Nc1cccc(CN2C(=O)N(CC3CC3)C(Cc3ccccc3)C(O)C(O)C2Cc2ccccc2)c1 (stereo not shown) (as salt: HCl) [15G]
- melting point: 108.9 °C

SMILES: CNc1cccc(CN2C(=O)N(Cc3ccc(CO)cc3)C(Cc3ccccc3)C(O)C(O)C2Cc2ccccc2)c1 (stereo not shown) (as salt: HCl) [15M]
- melting point: 107.6 °C

SMILES: Cc1ccc(CN2C(=O)N(Cc3ccc(CO)cc3)C(Cc3ccccc3)C(O)C(O)C2Cc2ccccc2)cc1 (stereo not shown) [15EI]
- melting point: 174 to 175 °C
- Ki ([1]; read-out: HPLC K1, Table 2d, HIV protease inhibition, HPLC method): < 10 nM

SMILES: O=C1N(Cc2ccccn2)C(Cc2ccccc2)C(O)C(O)C(Cc2ccccc2)N1Cc1ccccn1 (stereo not shown) [Example 3M]
- IC90 (HIV-1 (RF) in MT-2 cells; [4]): 10 to 100 µg/mL (≈ 19.7 to 197 µM)
- melting point: 151 to 153 °C

SMILES: O=C1N(Cc2cccc(-c3cc[nH]n3)c2)C(Cc2ccccc2)C(O)C(O)C(Cc2ccccc2)N1Cc1cccc(-c2cc[nH]n2)c1 (stereo not shown) [Example 15YL]
- IC90 (HIV-1 (RF) in MT-2 cells; Human immunodeficiency virus 1, MT2, 48 h, Table 2d, HIV RNA assay, read-out: IC90): < 10 µg/mL
- melting point: 208 to 210 °C

SMILES: O=C1N(Cc2cccc(OCc3ccccc3)c2)C(Cc2ccccc2)C(O)C(O)C(Cc2ccccc2)N1Cc1cccc([N+](=O)[O-])c1 (stereo not shown) (hydrate or solvate) [11P]
- melting point: 173 to 176 °C

SMILES: O=C1N(Cc2cccc(-c3cc[nH]n3)c2)C(Cc2ccccc2)C(O)C(O)C(Cc2ccccc2)N1Cc1cccc(-c2cc[nH]n2)c1 (stereo not shown) (as salt: HCl) [Example 15YM]
- melting point: 195 to 197 °C

SMILES: CCCCCC1C(O)C(O)C(CCCCC)N(Cc2ccccc2)C(=O)N1Cc1ccccc1 (stereo not shown) [Example 16AH]
- melting point: 94 to 97 °C
- Ki ([1]; read-out: K4 HPLC, Table 2e): 10 to 1000 nM

SMILES: NCC(=O)Nc1cccc(CN2C(=O)N(Cc3cccc(NC(=O)CN)c3)C(Cc3ccccc3)C(O)C(O)C2Cc2ccccc2)c1 (stereo not shown) (as salt: HCl) [15R]
- melting point: 233.7 °C

SMILES: CC(C)CCCC(C)CCN1C(=O)N(CCC(C)CCCC(C)C)C(Cc2ccccc2)C(O)C(O)C1Cc1ccccc1 (stereo not shown) [Example 1P]
- melting point: 80 to 82 °C

SMILES: CNC(=O)Nc1cccc(CN2C(=O)N(Cc3cccc(NC(=O)NC)c3)C(Cc3ccccc3)C(O)C(O)C2Cc2ccccc2)c1 (stereo not shown) [15L]
- melting point: 173.7 °C
- Ki [1, 3]: < 10 nM

SMILES: O=C1N(Cc2cccc3ccccc23)C(Cc2ccccc2)C(O)C(O)C(Cc2ccccc2)N1Cc1cccc2ccccc12 (stereo not shown) [Example 3T]
- IC90 (HIV-1 (RF) in MT-2 cells; [4]): > 100 µg/mL
- melting point: 231 to 233 °C

SMILES: O=C1N(Cc2cccc(OCCO)c2)C(Cc2ccccc2)C(O)C(O)C(Cc2ccccc2)N1Cc1cccc(OCCO)c1 (stereo not shown) (hydrate or solvate) [10Y]
- melting point: 245 to 247 °C

SMILES: O=C(NCCCCCN1C(=O)N(CCCCCNC(=O)c2cccc(C(F)(F)F)c2)C(Cc2ccccc2)C(O)C(O)C1Cc1ccccc1)c1cccc(C(F)(F)F)c1 (stereo not shown) [15FJ]
- IC90 (HIV-1 (RF) in MT-2 cells; HIV RNA assay, HIV-1 infected MT-2 cells, Table 2d): ++/+ (The ++/+ is used in the cases where an IC90 was determined to be >50 μg/mL)
- Ki ([1]; HIV protease inhibition, HPLC method, Table 2d, read-out: HPLC K1): 10 to 1000 nM

SMILES: CS(=O)(=O)CCCCCN1C(=O)N(CCCCCO)C(Cc2ccccc2)C(O)C(O)C1Cc1ccccc1 (stereo not shown) [15VT]
- IC90 (HIV-1 (RF) in MT-2 cells; Table 2d, class symbols): +++ (+++=<10 μg/mL)
- Ki ([1]; Table 2d, class symbols, read-out: HPLC K1): < 10 nM

SMILES: NCC(=O)Nc1cccc(CN2C(=O)N(Cc3cccc(NC(=O)CN)c3)C(Cc3ccccc3)C(O)C(O)C2Cc2ccccc2)c1 (stereo not shown) [15R]
- IC90 (HIV-1 (RF) in MT-2 cells; [2]): < 10 µg/mL
- Ki [1, 3]: < 10 nM

SMILES: CN(C)P1(=O)N(Cc2ccc(CO)cc2)[C@H](Cc2ccccc2)[C@H](O)[C@@H](O)[C@@H](Cc2ccccc2)N1Cc1ccc(CO)cc1 (stereo partly shown) [28I]
- IC90 (HIV-1 (RF) in MT-2 cells; Table 2r): ++ (++=10 to 100 μg/mL)
- Ki ([1]; Table 2r, read-out: Ki HPLC): 10 to 1000 nM

SMILES: COC(=O)c1ccc(CN2C(=O)N(Cc3ccc(C(=O)OC)cc3)C(Cc3ccc(F)c(F)c3)C(O)C(O)C2Cc2ccc(F)c(F)c2)cc1 (stereo not shown) [20Z]
- IC90 (HIV-1 (RF) in MT-2 cells; Table 2i): +++ (+++=<10 μg/mL)
- Ki ([1]; Table 2i, read-out: HPLC Ki): 10 to 1000 nM

SMILES: O=C1N(CCCCCNC(=S)Nc2ccccc2)C(Cc2ccccc2)C(O)C(O)C(Cc2ccccc2)N1CCCCCNC(=S)Nc1ccccc1 (stereo not shown) [15EW]
- IC90 (HIV-1 (RF) in MT-2 cells; Table 2d, HIV RNA assay): ++/+ (The ++/+ is used in the cases where an IC90 was determined to be >50 μg/mL)
- Ki [1, 5]: 10 to 1000 nM

SMILES: CC(=O)CCCCN1C(=O)N(CCCCC(C)=O)C(Cc2ccccc2)C(O)C(O)C1Cc1ccccc1 (stereo not shown) [Example 15WB]
- IC90 (HIV-1 (RF) in MT-2 cells; [2]): 10 to 100 µg/mL (≈ 19.1 to 191 µM)
- Ki [1, 3]: 10 to 1000 nM

SMILES: O=C1N(Cc2cccc(CCO)c2)C(Cc2ccccc2)C(O)C(O)C(Cc2ccccc2)N1Cc1cccc(CCO)c1 (stereo not shown) [15DX]
- IC90 (HIV-1 (RF) in MT-2 cells; Table 2d, HIV RNA assay): +++ (+++=<10 μg/mL)
- Ki [1, 5]: < 10 nM

SMILES: Oc1ccc(CN2C(=S)N(Cc3ccc(O)cc3)C(Cc3ccccc3)C(O)C(O)C2Cc2ccccc2)cc1 (stereo not shown) [Example 27F]
- IC90 (HIV-1 (RF) in MT-2 cells; Table 2q): +++ (+++=<10 μg/mL)
- Ki ([1]; Table 2q, read-out: HPLC Ki): < 10 nM

SMILES: O=C1N(CCCCCCO)C(Cc2ccccc2)C(O)C(O)C(Cc2ccccc2)N1CCCCCCO (stereo not shown) [Example 12D]
- IC90 (HIV-1 (RF) in MT-2 cells; [2]): < 10 µg/mL
- Ki [1, 3]: < 10 nM

SMILES: O=C1N(Cc2cccc(CO)c2)C(Cc2ccc(F)cc2)C(O)C(O)C(Cc2ccc(F)cc2)N1Cc1cccc(CO)c1 (stereo not shown) [20T]
- IC90 (HIV-1 (RF) in MT-2 cells; Table 2i): +++ (+++=<10 μg/mL)
- Ki ([1]; Table 2i, read-out: HPLC Ki): < 10 nM

SMILES: Nc1n[nH]c2ccc(CN3C(=O)N(Cc4ccc5[nH]nc(N)c5c4)C(Cc4ccccc4)C(O)C(O)C3Cc3ccccc3)cc12 (stereo not shown) [15DF]
- IC90 (HIV-1 (RF) in MT-2 cells; Table 2d, HIV RNA assay): +++ (+++=<10 μg/mL)
- Ki [1, 5]: < 10 nM

SMILES: O=C1N(Cc2ccc3[nH]nnc3c2)C(Cc2ccccc2)C(O)C(O)C(Cc2ccccc2)N1Cc1ccc2[nH]nnc2c1 (stereo not shown) [15CT]
- IC90 (HIV-1 (RF) in MT-2 cells; Table 2d, HIV RNA assay): +++ (+++=<10 μg/mL)
- Ki [1, 5]: < 10 nM

SMILES: CCCCC(O)CN1C(=O)NC(Cc2ccccc2)C(O)C(O)C1Cc1ccccc1 (stereo not shown) [Example 15VM]
- IC90 (HIV-1 (RF) in MT-2 cells; [2]): > 50 µg/mL
- Ki [1, 3]: > 1000 nM

SMILES: CC1(C)CCC(C)(C)c2cc(CN3C(=O)N(Cc4ccc5c(c4)C(C)(C)CCC5(C)C)C(Cc4ccccc4)C(O)C(O)C3Cc3ccccc3)ccc21 (stereo not shown) [15EL]
- IC90 (HIV-1 (RF) in MT-2 cells; Table 2d, HIV RNA assay): ++/+ (The ++/+ is used in the cases where an IC90 was determined to be >50 μg/mL)
- Ki [1, 5]: > 1000 nM

SMILES: O=C(O)CCCCCN1C(=O)N(CCCCCC(=O)O)C(Cc2ccccc2)C(O)C(O)C1Cc1ccccc1 (stereo not shown) [Example 12G]
- IC90 (HIV-1 (RF) in MT-2 cells; [2]): < 10 µg/mL
- Ki [1, 3]: < 10 nM

SMILES: O=C(NCCCCCN1C(=O)N(CCCCCNC(=O)c2ccccc2)C(Cc2ccccc2)C(O)C(O)C1Cc1ccccc1)c1ccccc1 (stereo not shown) [15EX]
- IC90 (HIV-1 (RF) in MT-2 cells; Table 2d, HIV RNA assay): ++/+ (The ++/+ is used in the cases where an IC90 was determined to be >50 μg/mL)
- Ki [1, 5]: 10 to 1000 nM

Reference: patent USRE37781E1, “Substituted cyclic carbonyls and derivatives thereof useful as retroviral protease inhibitors” (DuPont Pharmaceuticals Company, priority 1991, dated 2002)
